From patent US6630594B2, “Methods of making substituted phenylketoenols” (Bayer Aktiengesellschaft, priority 1996, dated 2003)

Key:
Type in all cases: in vivo
[1] = test system: greenhouse red spider mite Tetranychus urticae; experiment: Tetranychus Test (OP-resistent/dip Treatment); conditions: concentration of active compound 0.1%, after 13 days, infested bean plants dipped, all stages
Procedure: Tetranychus Test (OP-resistent/dip Treatment)
(§1) To produce a suitable preparation of active compound, 1 part by weight of active compound is mixed with the stated amount of solvent and the stated amount of emulsifier, and the concentrate is diluted with water to the desired concentration.
Bean plants (Phaseolus vulgaris) which are heavily infested by all stages of the greenhouse red spider mite Tetranychus urticae are dipped into a perparation of active compound of the desired concentration.
After the desired period of time, the kill in % is determined. 100% means that all spider mites haven been killed: 0% means that none of the spider mites have been killed.

[2] = test system: larvae of the mustard beetle (Phaedon cochleariae); experiment: Phaedon larvae Test (cabbage leaf dip); conditions: concentration of active compound 0.1%, after 7 days, cabbage leaves dipped
Procedure: Phaedon larvae Test [table] To produce a suitable preparation of active compound, 1 part by weight of active compound is mixed with the stated amount of solvent and the stated amount of emulsifier, and the concentrate is diluted with water to the desired concentration. Cabbage leaves (Brassica oleracea) are treated by being dipped into the preparation of active compound of the desired concentration and are populated with larvae of the mustard beetle (Phaedon cochleariae) while the leaves are still moist.

[3] = test system: green rice leaf hoppers (Nephotettix cincticeps); experiment: Nephotettix-Test (rice seedling dip); conditions: concentration of active compound 0.1%, after 6 days, rice seedlings dipped
Procedure: as §1
Rice seedlings (Oryzae sativa) are treated by being dipped into the preparation of active compound of the desired concentration and are populated with the green rice leaf hoppers (Nephotettix cincticeps) while the seedlings are still moist.
After the desired period of time, the kill in % is determined. 100% means that all leaf hoppers have been killed; 0% means that none of the leaf hoppers have been killed.

[4] = test system: caterpillars of the owlet moth Spodoptera frugiperda; experiment: Spodoptera frugiperda Test (cabbage leaf dip); conditions: concentration of active compound 0.1%, after 7 days, cabbage leaves dipped
Procedure: Spodoptera frugiperda Test
as §1
Cabbage leaves (Brassica oleracea) are treated by being dipped into the preparation of active compound of the desired concentration and are populated with caterpillars of the owlet moth Spodoptera frugiperda) while the leaves are still moist.
After the desired period of time, the kill in % is determined. 100% means that all caterpillars have been killed; 0% means that none of the caterpillars haven been killed.

[5] = test system: peach aphids (Myzus persicae); experiment: Myzus-Test (cabbage leaf dip); conditions: concentration of active compound 0.1%, after 6 days, infested cabbage leaves dipped
Procedure: To produce a suitable preparation of active compound, 1 part by weight of active compound is mixed with the state amount of solvent and the stated amount of emulsifier, and the concentrate is diluted with water to the desired concentration.
Cabbage leaves (Brassica oleracea) which are heavily infested by peach aphids (Myzus persicae) are treated by being dipped into the preparation of active compound of the desired concentration.
After the desired period of time, the kill in % is determined. 100% means that all aphids have been killed; 0% means that none of the aphids have been killed.

Measured: kill in %

Cc1cc(C)c(C2=C(OC(=O)C(C)(C)C)C3(CCCOC3)NC2=O)c(C)c1 (stereo not drawn) [Example I-1-b-1]
100%: [1] | [2] | [3]

CCOC(=O)OC1=C(c2c(C)cc(C)cc2C)C(=O)NC12CCCOC2 (stereo not drawn) [Example I-1-c-1]
100%: [4] | [1] | [5]

Cc1cc(C)c(C2=C(O)C3(CCCOC3)NC2=O)c(C)c1 (stereo not drawn) [Example I-1-a-1]
100%: [1] | [2] | [3]
